The record followed here is patent publication US20040014779A1, “Methods and compositions related to IRM compounds and toll-like recptor pathways” (3M Innovative Properties Company, priority 2001, published 2004).

Values joined by “and” are separate entries in the source; they are usually repeats but may differ in a detail not shown here. Equal values may be shown once. Read-outs that look alike come from different tables or passages of the source.

One experiment addresses T1, human TLR7 (Homo sapiens, UniProt Q9NYK1).
T1 construct: expressed in transfected cells; host or cells: HEK293 (pIRES, G-418 selected)
T1 sequence (Q9NYK1 27-1049): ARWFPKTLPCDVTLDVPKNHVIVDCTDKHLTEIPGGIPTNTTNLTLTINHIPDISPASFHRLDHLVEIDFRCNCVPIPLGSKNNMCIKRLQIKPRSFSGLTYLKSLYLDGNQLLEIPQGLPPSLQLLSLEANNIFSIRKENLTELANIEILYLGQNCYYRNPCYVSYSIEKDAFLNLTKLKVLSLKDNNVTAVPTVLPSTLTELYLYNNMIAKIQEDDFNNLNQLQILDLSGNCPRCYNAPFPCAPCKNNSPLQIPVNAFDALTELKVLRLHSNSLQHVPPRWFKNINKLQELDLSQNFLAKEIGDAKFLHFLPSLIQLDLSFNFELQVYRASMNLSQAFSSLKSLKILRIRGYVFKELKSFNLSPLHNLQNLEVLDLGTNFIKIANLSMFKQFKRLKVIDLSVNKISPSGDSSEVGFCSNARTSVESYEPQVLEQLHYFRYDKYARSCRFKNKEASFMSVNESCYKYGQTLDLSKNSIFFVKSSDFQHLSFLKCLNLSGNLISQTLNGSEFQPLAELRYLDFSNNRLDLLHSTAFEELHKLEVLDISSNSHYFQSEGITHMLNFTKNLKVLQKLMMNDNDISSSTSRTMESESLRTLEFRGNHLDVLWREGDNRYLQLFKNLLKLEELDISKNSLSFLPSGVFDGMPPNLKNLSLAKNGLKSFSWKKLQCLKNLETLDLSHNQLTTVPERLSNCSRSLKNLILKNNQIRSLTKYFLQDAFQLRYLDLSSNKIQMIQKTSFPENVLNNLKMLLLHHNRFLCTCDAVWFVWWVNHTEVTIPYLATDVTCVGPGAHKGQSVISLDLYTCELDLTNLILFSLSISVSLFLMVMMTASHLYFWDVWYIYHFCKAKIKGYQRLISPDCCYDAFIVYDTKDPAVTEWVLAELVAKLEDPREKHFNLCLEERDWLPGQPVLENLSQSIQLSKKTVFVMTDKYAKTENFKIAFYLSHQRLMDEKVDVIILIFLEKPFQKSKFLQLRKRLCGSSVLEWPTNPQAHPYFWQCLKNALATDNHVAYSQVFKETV
Description: NFkB-luc reporter in HEK293 cells transfected with human TLR7. Format: cell-based. Here is the method: (§1) HEK 293 cells were cultured in Minimum Essential Medium (MEM) with 2 mM L-glutamine and Earle's Balanced Salt Solution (Invitrogen Corp., Rockville, Md.) adjusted to contain 1.5 g/L sodium bicarbonate, 0.1 mM non-essential amino acids, and 1.0 mM sodium pyruvate, 90%; heat-inactivated fetal calf serum, 10%. The cells were incubated at 37° C., 8% CO2.
(§2) The cells were co-transfected with human TLR7 or Empty Vector control pIRES (BD Biosciences Clontech, Palo Alto, Calif.) along with NFkB-luc reporter (Stratagene, La Jolla, Calif.) in a 10:1 ratio with Fugene 6 transfection reagent (Roche Diagnostics Corp., Indianapolis, Ind.) following the manufacturer's instructions.
(§3) The cells were stimulated with 1 μL of IRM compounds at 1 mM in DMSO (final concentration of 10 μM) or 1 μL DMSO as a control. The plates were then incubated an additional 16 hours at 37° C., 5% CO2. The luciferase signal was read using the LucLite kit (Packard Instrument Co., Meriden, Conn.). The luminescence was measured on the Topcount NXT (Packard Instrument Co., Meriden, Conn.).

A further experiment concerns NF-κB. As to the kind of experiment: NFkB-luc reporter in HEK293 cells with empty vector control. The settings on record: luciferase signal; for fold induction at 10 µM: Homo sapiens, HEK293, 16 h, read-out: Fold Increase Over DMSO Control, HEK 293 Vector; for Fold Increase Over DMSO Control, HEK 293 Vector: 10 μM, 16 hours. The experiment is classed as cell-based, human. Here is the method: as §1, §2, §3

The target of another experiment is T2, TLR6 (Homo sapiens, UniProt Q9Y2C9).
T2 construct: Peripheral blood mononuclear cells (PBMCS) were isolated; endogenous in cells; host or cells: human PBMC from healthy volunteers
Description: Anti-TLR6 antibody inhibition of TNF-α production by human PBMC. The experiment is classed as cell-based. Particulars: preincubation with anti-TLR6 antibodies; compared with LPS.

The mark [1] stands for this setting: luciferase signal, 10 μM, 16 hours, TLR7 cells.

T2 sequence (Q9Y2C9 32-796): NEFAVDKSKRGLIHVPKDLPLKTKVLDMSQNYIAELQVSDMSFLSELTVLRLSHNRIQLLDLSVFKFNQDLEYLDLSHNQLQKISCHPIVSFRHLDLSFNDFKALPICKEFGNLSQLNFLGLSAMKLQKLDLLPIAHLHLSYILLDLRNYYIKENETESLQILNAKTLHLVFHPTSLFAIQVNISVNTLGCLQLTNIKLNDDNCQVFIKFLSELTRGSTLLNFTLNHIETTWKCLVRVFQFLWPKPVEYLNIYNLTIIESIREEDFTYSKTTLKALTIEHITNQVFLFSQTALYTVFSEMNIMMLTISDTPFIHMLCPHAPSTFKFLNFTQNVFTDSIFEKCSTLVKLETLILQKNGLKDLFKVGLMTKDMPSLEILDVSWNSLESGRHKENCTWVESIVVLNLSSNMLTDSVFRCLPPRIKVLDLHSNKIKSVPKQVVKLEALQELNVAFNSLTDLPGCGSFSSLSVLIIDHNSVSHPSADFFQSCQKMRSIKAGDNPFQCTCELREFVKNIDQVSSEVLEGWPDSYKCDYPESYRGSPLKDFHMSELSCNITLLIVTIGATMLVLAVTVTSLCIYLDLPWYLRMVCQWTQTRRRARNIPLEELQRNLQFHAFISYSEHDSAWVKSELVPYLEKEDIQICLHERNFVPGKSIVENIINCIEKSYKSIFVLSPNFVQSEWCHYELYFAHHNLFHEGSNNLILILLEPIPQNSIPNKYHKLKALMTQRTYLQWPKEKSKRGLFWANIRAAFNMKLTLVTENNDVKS
T2 sequence (O60603 21-784 partner): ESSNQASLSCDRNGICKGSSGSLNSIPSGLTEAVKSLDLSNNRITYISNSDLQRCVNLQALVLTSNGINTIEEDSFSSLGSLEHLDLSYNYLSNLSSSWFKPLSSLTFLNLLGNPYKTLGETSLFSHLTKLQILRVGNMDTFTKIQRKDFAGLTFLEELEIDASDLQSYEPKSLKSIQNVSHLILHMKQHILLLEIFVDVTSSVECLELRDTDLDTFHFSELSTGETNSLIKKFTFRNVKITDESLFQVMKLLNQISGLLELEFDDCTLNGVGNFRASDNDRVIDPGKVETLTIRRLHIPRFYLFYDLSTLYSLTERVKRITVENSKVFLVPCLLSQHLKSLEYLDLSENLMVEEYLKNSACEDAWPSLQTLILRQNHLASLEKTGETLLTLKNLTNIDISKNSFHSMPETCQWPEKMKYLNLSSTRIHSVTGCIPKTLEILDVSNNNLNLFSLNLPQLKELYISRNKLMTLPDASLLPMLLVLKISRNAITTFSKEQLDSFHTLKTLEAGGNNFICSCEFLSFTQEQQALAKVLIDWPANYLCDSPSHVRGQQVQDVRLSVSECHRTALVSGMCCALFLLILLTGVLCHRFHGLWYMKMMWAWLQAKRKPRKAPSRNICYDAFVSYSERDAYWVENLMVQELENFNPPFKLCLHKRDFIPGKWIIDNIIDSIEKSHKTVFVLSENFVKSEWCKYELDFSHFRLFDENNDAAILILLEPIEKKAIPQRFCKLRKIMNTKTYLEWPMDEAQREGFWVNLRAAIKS
Description for TLR6: Peripheral blood mononuclear cells (PBMCS) were isolated with the Histopaque HybriMax—1077 density gradient (Sigma Chemical Co., St. Louis, Mo.) from healthy human volunteers after obtaining informed consent.
PBMC were resuspended in cRPMI at a concentration of 10^6 cells/ml. 100 μl of cells (10^5 cells) were then added to individual wells of a 96 well U-bottom plate (BD Biosciences Discovery Labware, Bedford, Mass.). Solutions containing cRPMI with 40 μg/ml of the affinity purified anti-TLR6 polyclonal antibody were prepared. 50 μl of the antibody solution was added to cells and incubated for 30 minutes. […] Cells were incubated for 18 hours at 37° C. in an atmosphere of 5% CO2/95% air. Supernatants were collected and frozen at −20° C. for cytokine analysis. The data are presented as % inhibition relative to control.
Data shown are representative of six independent experiments.

As for `Cc1nc2c(N)nc3ccccc3c2n1CC(C)(C)O.Cl` [IRM 1, 4-amino-α,α,2-trimethyl-1H-imidazo[4,5-c]quinoline-1-ethanol hydrochloride], the “Fold Increase Over DMSO Control, HEK293 TLR7” value on human TLR7 (setting [1]) turned out to be 3.75 fold. Also, the fold induction at 10 µM in the experiment with NF-κB was determined as 0.86.

For `Nc1nc2ccccc2c2c1ncn2CCOCCCc1cccnc1` [IRM 4, 1-{2-[3-(3-pyridyl)propoxy]ethyl}-1H-imidazo[4,5-c]quinolin-4-amine], at human TLR7 (setting [1]), the “Fold Increase Over DMSO Control, HEK293 TLR7” value came out at 4.06 fold. In addition, the fold induction at 10 µM in the experiment on NF-κB came to 1.

In the case of `CCCCc1nc2c(N)nc3ncccc3c2n1CC(C)C` [IRM 5, 2-butyl-1-(2-methylpropyl)-1H-imidazo[4,5-c][1,8]naphthyridin-4-amine], the “Fold Increase Over DMSO Control, HEK293 TLR7” value on human TLR7 (setting [1]) turned out to be 1.13 fold. Further, the fold induction at 10 µM in the experiment on NF-κB worked out at 1.21.

Take `CCCCc1nc2c(N)nc3cnccc3c2n1CC(C)C` [IRM 6, 2-butyl-1-(2-methylpropyl)-1H-imidazo[4,5-c][1,7]naphthyridin-4-amine]: the “Fold Increase Over DMSO Control, HEK293 TLR7” value on human TLR7 (setting [1]) is recorded as 1.25 fold. Moreover, in the experiment on NF-κB, the fold induction at 10 µM was 0.95.

For the molecule `CCCCc1nc2c(N)nc3cccnc3c2n1CC(C)C` [IRM 7, 2-butyl-1-(2-methylpropyl)-1H-imidazo[4,5-c][1,5]naphthyridin-4-amine], the “Fold Increase Over DMSO Control, HEK293 TLR7” value on human TLR7 (setting [1]) worked out at 3.06 fold. Also, the fold induction at 10 µM in the experiment on NF-κB amounted to 1.3.

Turning to `CCCCc1nc2c(N)nc3c(c2n1CC(C)C)NCCC3` [IRM 8, 2-butyl-6,7,8,9-tetrahydro-1-(2-methylpropyl)-1H-imidazo[4,5-c][1,5]naphthyridin-4-amine], the “Fold Increase Over DMSO Control, HEK293 TLR7” value at human TLR7 (setting [1]) was 4.59 fold. Moreover, the fold induction at 10 µM with NF-κB was determined as 0.91.

`CCOCc1nc2c(N)nc3c(c2n1CC(C)(C)O)CCCC3` [IRM 9, 4-amino-2-ethoxymethyl-α,α-dimethyl-6,7,8,9-tetrahydro-1H-imidazol[4,5-c]quinoline-1-ethanol]: the “Fold Increase Over DMSO Control, HEK293 TLR7” value at human TLR7 was 4.67 fold. Besides, the “Fold Increase Over DMSO Control, HEK 293 Vector” value in the experiment with NF-κB was determined as 0.81 fold.

With `C[C@H](c1ccccc1)n1cnc2c(N)nc3ccccc3c21` [IRM 10, 1-[R(+)-1-phenylethyl]-1H-imidazo[4,5-c]quinolin-4-amine], at human TLR7 (setting [1]), the “Fold Increase Over DMSO Control, HEK293 TLR7” value amounted to 2.55 fold. Moreover, the “Fold Increase Over DMSO Control, HEK 293 Vector” value in the experiment with NF-κB was 1.10 fold.

Turning to `CCCCc1nc2c(N)nc3cccnc3c2s1` [IRM 11, 2-butyl[1,3]thiazolol[4,5-c][1,5]naphthyridin-4-amine], at human TLR7 (setting [1]), the “Fold Increase Over DMSO Control, HEK293 TLR7” value is 1.06 fold. Further, in the experiment on NF-κB, the “Fold Increase Over DMSO Control, HEK 293 Vector” value amounted to 1.35 fold.

`CCCCc1nc2c(N)nc3ccccc3c2n1CCCCNS(C)(=O)=O` [IRM 12, N-[4-(4-amino-2-butyl-1H-imidazo[4,5-c]quinolin-1-yl)butyl]methanesulfonamide]: the “Fold Increase Over DMSO Control, HEK293 TLR7” value at human TLR7 (setting [1]) is given as 15.33 fold. Also, the fold induction at 10 µM in the experiment with NF-κB was 1.33.

As for `Nc1nc2ccccc2c2c1nc1n2CCCC1` [IRM 13, 8,9,10,11-tetrahydropyrido[1′,2′:1,2]imidazol[4,5-c]quinolin-6-amine], at human TLR7 (setting [1]), the “Fold Increase Over DMSO Control, HEK293 TLR7” value amounted to 2.39 fold. Besides, the “Fold Increase Over DMSO Control, HEK 293 Vector” value with NF-κB stood at 1.20 fold.

Regarding `COCCc1nc2c(N)nc3ccccc3c2n1CCCCNC(=O)c1ccc(-n2cccc2)nc1` [IRM 14, N^3-{4-[4-amino-2-(2-methoxyethyl)-1H-imidazo[4,5-c]quinolin-1-yl]butyl}-6-(1H-1-pyrrolyl)nicotinamide], the “Fold Increase Over DMSO Control, HEK293 TLR7” value at human TLR7 (setting [1]) was 1.37 fold. The fold induction at 10 µM in the experiment with NF-κB amounted to 1.31.

For `CCCCc1nc2c(N)nc3ccccc3c2n1CCNS(C)(=O)=O` [IRM 15, N-[2-(4-amino-2-butyl-1H-imidazo[4,5-c]quinolin-1-yl)ethyl]methanesulfonamide], at human TLR7 (setting [1]), the “Fold Increase Over DMSO Control, HEK293 TLR7” value amounted to 1.88 fold. In the experiment with NF-κB, the fold induction at 10 µM is 1.04.

For the molecule `COCCc1nc2c(N)nc3ccccc3c2n1CCCCNC(=O)N1CCOCC1` [IRM 16, N-{4-[4-amino-2-(2-methoxyethyl)-1H-imidazo[4,5-c]quinolin-1-yl]butyl}morpholine-4-carboxamide], on human TLR7 (setting [1]), the “Fold Increase Over DMSO Control, HEK293 TLR7” value was 1.51 fold. Moreover, in the experiment on NF-κB, the fold induction at 10 µM was 0.98.

As to `CCCCc1nc2c(N)nc(C)c(C)c2n1CCCCNS(C)(=O)=O` [IRM 17, N-[4-(4-amino-2-butyl-6,7-dimethyl-1H-imidazo[4,5-c]pyridin-1-yl)butyl]methanesulfonamide], the “Fold Increase Over DMSO Control, HEK293 TLR7” value on human TLR7 (setting [1]) was 2.79 fold and 2.71 fold. In the experiment with NF-κB, the fold induction at 10 µM turned out to be 0.99.

As for Peptidoglycan, the “Effect of anti-TLR6 antibodies on stimulus-induced TNF-α production (in words)” value at TLR6 is on record as “inhibited by the antibodies to a greater extent”.
